Among the data in ChEMBL document CHEMBL1123349, “Analogues of 1,3-dipropyl-8-phenylxanthine: enhancement of selectivity at A1-adenosine receptors by aryl substituents” (J Med Chem, 1986) are Ki and Ratio values, retold here.

Where “and” joins values, the source holds several entries; their conditions need not be identical. Identical values can stand only once.

One assay concerns the target T1, Adenosine receptor A1 (Rattus norvegicus, UniProt P25099).
T1 sequence (P25099 whole entry): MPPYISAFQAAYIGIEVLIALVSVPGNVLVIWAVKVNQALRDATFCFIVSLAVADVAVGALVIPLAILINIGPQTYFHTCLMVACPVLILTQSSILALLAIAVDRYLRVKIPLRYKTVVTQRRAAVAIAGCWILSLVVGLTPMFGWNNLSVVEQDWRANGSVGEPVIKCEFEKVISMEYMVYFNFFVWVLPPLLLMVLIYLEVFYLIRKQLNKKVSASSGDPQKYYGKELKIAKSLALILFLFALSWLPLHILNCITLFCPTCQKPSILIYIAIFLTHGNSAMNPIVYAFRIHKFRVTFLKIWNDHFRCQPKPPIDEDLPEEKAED
Description: Binding affinity against A1 adenosine receptors of the central nervous system.

For another assay, the target named is Adenosine A2 receptor (Rattus norvegicus, UniProt P29276+P30543). Put plainly: Binding affinity against A2 adenosine receptors of the central nervous system. It counts as protein assay.
Assay [1] has as its target Adenosine receptors; A1 & A2 (Rattus norvegicus) (UniProt P29276+P25099+P30543). Put plainly: Selectivity ratio was expressed as the ratio of binding affinity towards Adenosine A2 receptor to that of Adenosine A1 receptor in rat.

By Ki is commonly meant a dissociation constant, usually derived from enzyme kinetics or from competition with a known ligand.

Consider `CCCn1c(=O)c2[nH]c(-c3ccc(F)cc3F)nc2n(CCC)c1=O`, for which the affinity on Adenosine receptor A1 corresponds to a Ki of 51 nM.

`CCCn1c(=O)c2[nH]c(-c3ccc(O)cc3O)nc2n(CCC)c1=O`: the Ki on Adenosine receptor A1 turned out to be 15 nM.

`CCCn1c(=O)c2nc(-c3ccc(C(N)=O)cc3)[nH]c2n(CCC)c1=O`: the Ki is 7 nM and 25 nM at Adenosine receptor A1; 72 nM and 55 nM on Adenosine A2 receptor.

For the compound `CCCn1c(=O)c2nc(-c3ccc(O)c(Cl)c3)[nH]c2n(CCC)c1=O`, the Ratio in assay [1] is 3.9. The compound also yielded a Ki at Adenosine A2 receptor of 140 nM.

Take `CCCn1c(=O)c2nc(-c3ccc(N)cc3)[nH]c2n(CCC)c1=O`: the Ratio in assay [1] was 1. The Ki was 27 nM at Adenosine receptor A1 and 28 nM at Adenosine A2 receptor.

Consider `CCCn1c(=O)c2nc(-c3cc(O)ccc3O)[nH]c2n(CCC)c1=O`, for which the Ratio in assay [1] is 9.7. The Ki on Adenosine receptor A1 is 360 nM; at Adenosine A2 receptor it was 3500 nM.

`CCCn1c(=O)c2nc(-c3ccc(S(=O)(=O)O)cc3)[nH]c2n(CCC)c1=O`: the Ratio in assay [1] came out at 3.4. The Ki at Adenosine A2 receptor turned out to be 710 nM.

`CCCn1c(=O)c2[nH]c(-c3ccc(OC)cc3O)nc2n(CCC)c1=O`: the Ratio in assay [1] was 89. Besides, the Ki on Adenosine receptor A1 was 11 nM; at Adenosine A2 receptor it was 980 nM.

As for `CCCn1c(=O)c2nc(-c3ccc(S(N)(=O)=O)cc3)[nH]c2n(CCC)c1=O`, the Ratio in assay [1] is 15. Further, the Ki was 8.5 nM on Adenosine receptor A1 and 115 nM on Adenosine A2 receptor.

For the compound `CCCn1c(=O)c2nc(-c3ccc(Cl)cc3OC)[nH]c2n(CCC)c1=O`, the Ratio in assay [1] is greater than 7. Moreover, the Ki on Adenosine receptor A1 is 420 nM; on Adenosine A2 receptor, greater than 3000 nM.

Take `CCCn1c(=O)c2nc(-c3ccc(Cl)cc3N)[nH]c2n(CCC)c1=O`: in assay [1], the Ratio came to 400. For the same compound, at Adenosine A2 receptor, the Ki is reported as 1000 nM.

In the case of `CCCn1c(=O)c2nc(-c3cccc(O)c3O)[nH]c2n(CCC)c1=O`, the Ratio in assay [1] amounted to 6.4. Besides, the Ki on Adenosine receptor A1 came to 33 nM; on Adenosine A2 receptor it was 210 nM.

The compound `CCCn1c(=O)c2nc(-c3ccc(OC)cc3)[nH]c2n(CCC)c1=O` came in with a Ki at Adenosine receptor A1 of 14 nM.

As for `CCCn1c(=O)c2[nH]c(-c3ccc(O)c(Cl)c3)nc2n(CCC)c1=O`, the affinity on Adenosine receptor A1, expressed as Ki, was 36 nM.

For `CCCn1c(=O)c2nc(-c3ccc(N)cc3N)[nH]c2n(CCC)c1=O`, the Ratio in assay [1] worked out at 2.8. Moreover, the Ki at Adenosine receptor A1 was 4.6 nM; on Adenosine A2 receptor, 13 nM.

As for `CCCn1c(=O)c2nc(-c3ccc(N(C)C)cc3)[nH]c2n(CCC)c1=O`, the Ratio in assay [1] was 2.2. The results for the Ki on Adenosine receptor A1 and at Adenosine A2 receptor were 45 nM and 100 nM, respectively.

Turning to `CCCn1c(=O)c2nc(-c3ccc(OC(C)=O)cc3)[nH]c2n(CCC)c1=O`, the Ratio in assay [1] was determined as 1.5. Besides, the Ki on Adenosine receptor A1 amounted to 8 nM; on Adenosine A2 receptor, 12 nM.

With `CCCn1c(=O)c2nc(-c3ccc(F)cc3F)[nH]c2n(CCC)c1=O`, the Ratio in assay [1] came to 5.9. The compound further returned a Ki at Adenosine A2 receptor of 290 nM.
